Molecules are shown by their SMILES. pIC50: −log10 of the molar value. The source made the active and inactive calls. The rule behind the calls is not given here.

Assay [1] has as its system HEK-293T. Nature of the assay: Inhibition of TNF-alpha-induced NF-kappaB activation in HEK293T cells. In kind it is functional, cell-based. As to conditions: Homo sapiens.
The subject of assay [2] is Radical scavenging activity. Nature of the assay: Antioxidant activity measured as ability to react with ABTS radical cation at 15 uM by TRAP assay. In kind it is functional.
The test system of assay [3] is HEK-293T. The assay can be described thus: Loss in viability of human HEK293T cells at 15 uM after 7 hrs relative to control. The class given is functional, cell-based.
In assay [4] the test system is Radical scavenging activity. Nature of the assay: Antioxidant activity measured as ability to reduce ferric tripyridyltriazine complex at 15 uM by FRAP assay. In kind it is functional.
Assay [5] has as its system BV-2. The assay can be described thus: Suppression of LPS-stimulated COX2 mRNA expression in mouse BV2 cells at 0.15 uM. In kind it is functional, cell-based.
The subject of assay [6] is BV-2. The assay can be described thus: Suppression of LPS-stimulated COX2 mRNA expression in mouse BV2 cells at 20 uM. In kind it is functional, cell-based.
Assay [7] has as its system BV-2. Nature of the assay: Suppression of LPS-stimulated COX2 mRNA expression in mouse BV2 cells at 4 uM. In kind it is functional.

For orientation: pIC50 means the negative decadic logarithm of the IC50, by convention in mol/L. On to `COc1ccc(/C=C/c2cccc(OC)c2)cc1`, for which, in the assay on HEK-293T [1], the negative-log IC50 (pIC50) was 6.22. For the same compound, the outcome (in assay [2]; in the assay on HEK-293T [3]; in assay [4]) was inactive.
In the assay with HEK-293T [1], `COc1ccc(/C=C/c2cccc(Cl)c2)cc1` had a pIC50 of 6.00. Besides, the result (in assay [2]; in the assay on HEK-293T [3]; in assay [4]) was inactive.
In the case of `COc1ccc(/C=C/c2cccc(O)c2O)cc1`, the result in assay [2] and in assay [4] was Active. The result with HEK-293T [3] was inactive.
For `C(=C\c1ccc2ccccc2c1)/c1ccccc1`, the result (in assay [2]; with HEK-293T [3]; in assay [4]) was inactive.
Compound `COc1ccc(/C=C/c2ccc(C)cc2)cc1` had a negative logarithm of the IC50 (pIC50) with HEK-293T [1] of 6.05. Also, the outcome (in assay [2]; in the assay with HEK-293T [3]; in assay [4]) was inactive.
Consider `CN(C)c1ccc(/C=C/c2ccccc2)cc1`, for which the outcome (with BV-2 [5]; in assay [2]; in assay [4]) was Active. Further, the pIC50 with HEK-293T [1] is 6.82. Also, in the assay on HEK-293T [3], the result was inactive.
In the case of `COc1ccc(/C=C/c2ccccc2F)cc1`, the result in the assay on BV-2 [5] was Active. In the assay with HEK-293T [1], the pIC50 was 6.82. Further, the result (in assay [2]; in the assay on HEK-293T [3]; in assay [4]) was inactive.
In the assay on HEK-293T [1], `COc1ccc(/C=C/c2ccc(O)c(O)c2)cc1` gave a pIC50 of 6.22. For the same compound, the outcome in assay [2] and in assay [4] was Active. Also, the outcome with HEK-293T [3] was inactive.
For the compound `CCOc1ccc(/C=C/c2ccccc2)cc1`, the result (in assay [2]; in the assay with HEK-293T [3]; in assay [4]) was inactive.
`COc1ccc(/C=C/c2ccccc2Cl)cc1` had a negative logarithm of the IC50 (pIC50) with HEK-293T [1] of 5.82. Further, the result (in assay [2]; in the assay on HEK-293T [3]; in assay [4]) was inactive.
Regarding `Oc1ccc(/C=C/c2cc(O)cc(O)c2)cc1` [RESVERATROL], the outcome (with BV-2 [6]; in assay [2]; in assay [4]) was Active. In the assay on BV-2 [7], this compound gave an Activity of 50%. The compound further showed a pIC50 in the assay with HEK-293T [1] of 4.70. The result with HEK-293T [3] was inactive.
`COc1ccc(/C=C/c2cccc(F)c2)cc1`: the result (in assay [2]; with HEK-293T [3]; in assay [4]) was inactive.
`COc1ccc(/C=C/c2cccc(C)c2)cc1` had a negative-log IC50 (pIC50) with HEK-293T [1] of 6.10. The result (in assay [2]; with HEK-293T [3]; in assay [4]) was inactive.

These data come from ChEMBL document CHEMBL1138878 (J Med Chem, 2006).
